{
  "source": "ChEMBL document CHEMBL4196029",
  "about": "“New MD2 inhibitors derived from curcumin with improved anti-inflammatory activity” (Eur J Med Chem, 2018)",
  "key": {"Rattus norvegicus [1]": {"test_system": "Rattus norvegicus", "test": "(§1) Anti-inflammatory activity in Sprague-Dawley rat model of LPS-induced acute lung injury assessed as reduction in leukocytic extravasation in lungs by measuring number of cells in BALF at 20 mg/kg, po administered daily for 1 week followed by LPS addition at 30 mins post last dose measured after 6 hrs by Wright-Giemsa staining based light microscopic assay", "type": "functional, organism-based"}, "RAW264.7": {"test_system": "RAW264.7", "test": "Inhibition of MD2 in […] cells harboring NF-kB-luc assessed as inhibition of LPS-induced TLR4 activation-mediated NF-kB transcriptional activity at 2.5 uM preincubated with cells followed by LPS addition measured after 6 hrs by luciferase reporter gene assay", "type": "cell-based"}, "Rattus norvegicus [2]": {"test_system": "Rattus norvegicus", "test": "as §1, with “neutrophil” for “leukocytic”, “tissue myeloperoxidase activity” for “number of cells in BALF”, “spectrophotometric method” for “Wright-Giemsa staining based light microscopic assay”", "type": "functional", "parameters": "scale not given: the % may be the effect or the level left"}, "Peritoneal macrophage [3]": {"test_system": "Peritoneal macrophage", "test": "Anti-inflammatory activity in C57BL/6 mouse primary peritoneal macrophages assessed as inhibition of LPS-induced TNFalpha secretion at 10 uM preincubated for 30 mins followed by LPS addition measured after 24 hrs by ELISA relative to control", "type": "functional", "conditions": "C57BL/6, Peritoneal macrophage"}, "Peritoneal macrophage [4]": {"test_system": "Peritoneal macrophage", "test": "Inhibition of LPS-induced IL-1beta mRNA expression in C57BL/6 mouse primary peritoneal macrophages at 10 uM preincubated for 30 mins followed by LPS addition measured after 24 hrs by qRT-PCR analysis", "type": "functional, cell-based"}, "Rattus norvegicus [5]": {"test_system": "Rattus norvegicus", "test": "Anti-inflammatory activity in Sprague-Dawley rat model of LPS-induced acute lung injury assessed as reduction in TNFalpha mRNA level in lungs at 20 mg/kg, po administered daily for 1 week followed by LPS addition at 30 mins post last dose measured after 6 hrs by qRT-PCR method", "type": "functional, organism-based"}, "Mus musculus": {"test_system": "Mus musculus", "test": "Anti-inflammatory activity in C57BL/6 mouse model of LPS-induced sepsis assessed as survival at 10 mg/kg, iv administered 15 mins prior to LPS treatment measured for 7 days (reference value: 10 to 30%)", "type": "functional", "conditions": "C57BL/6, iv"}, "Rattus norvegicus [6]": {"test_system": "Rattus norvegicus", "test": "Anti-inflammatory activity in Sprague-Dawley rat model of LPS-induced acute lung injury assessed as reduction in IL-6 mRNA level in lungs at 20 mg/kg, po administered daily for 1 week followed by LPS addition at 30 mins post last dose measured after 6 hrs by qRT-PCR method", "type": "functional, organism-based"}, "Peritoneal macrophage [7]": {"test_system": "Peritoneal macrophage", "test": "Anti-inflammatory activity in C57BL/6 mouse primary peritoneal macrophages assessed as inhibition of LPS-induced TNFalpha secretion at 1 to 10 uM preincubated for 30 mins followed by LPS addition measured after 24 hrs by ELISA", "type": "functional, cell-based"}, "[8]": {"biological_target": "T1, Inhibitor of nuclear factor kappa-B kinase subunit beta (Homo sapiens) (UniProt O14920)", "T1 sequence (whole entry)": "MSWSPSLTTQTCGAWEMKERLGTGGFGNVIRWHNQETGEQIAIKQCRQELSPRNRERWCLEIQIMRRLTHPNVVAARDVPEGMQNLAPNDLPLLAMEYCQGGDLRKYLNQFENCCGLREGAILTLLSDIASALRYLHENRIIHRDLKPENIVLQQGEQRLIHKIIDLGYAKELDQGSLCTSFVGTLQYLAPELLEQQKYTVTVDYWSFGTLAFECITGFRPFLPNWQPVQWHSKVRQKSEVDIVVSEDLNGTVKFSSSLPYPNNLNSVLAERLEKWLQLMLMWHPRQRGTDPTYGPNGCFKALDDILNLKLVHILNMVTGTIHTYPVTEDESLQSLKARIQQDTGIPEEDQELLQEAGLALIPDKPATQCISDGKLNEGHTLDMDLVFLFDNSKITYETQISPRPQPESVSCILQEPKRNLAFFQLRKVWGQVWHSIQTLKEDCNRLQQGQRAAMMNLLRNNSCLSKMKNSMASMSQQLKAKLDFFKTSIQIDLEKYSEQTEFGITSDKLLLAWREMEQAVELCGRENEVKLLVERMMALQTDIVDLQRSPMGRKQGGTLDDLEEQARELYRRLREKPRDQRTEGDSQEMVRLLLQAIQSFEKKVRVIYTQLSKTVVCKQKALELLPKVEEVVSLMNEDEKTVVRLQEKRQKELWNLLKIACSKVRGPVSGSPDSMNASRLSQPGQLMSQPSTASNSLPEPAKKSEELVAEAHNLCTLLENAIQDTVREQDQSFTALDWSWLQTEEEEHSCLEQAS", "test": "Inhibition of recombinant human N-terminal His-tagged IKKbeta (1 to 662 residues) expressed in baculovirus expression system at 1 uM after 1 hr by caliper mobility shift assay relative to control"}, "[9]": {"biological_target": "Mitogen-activated protein kinase 1 (Homo sapiens) (UniProt P28482)", "sequence (P28482 whole entry)": "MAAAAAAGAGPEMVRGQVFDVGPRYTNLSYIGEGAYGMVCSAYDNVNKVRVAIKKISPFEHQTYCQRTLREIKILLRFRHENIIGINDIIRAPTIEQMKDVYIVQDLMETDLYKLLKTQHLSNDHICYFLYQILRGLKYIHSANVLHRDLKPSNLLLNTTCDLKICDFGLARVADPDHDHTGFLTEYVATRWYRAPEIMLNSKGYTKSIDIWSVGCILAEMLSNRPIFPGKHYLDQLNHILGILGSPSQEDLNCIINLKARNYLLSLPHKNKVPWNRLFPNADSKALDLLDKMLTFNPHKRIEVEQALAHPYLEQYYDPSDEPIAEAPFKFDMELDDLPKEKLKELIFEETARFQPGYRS", "test": "Inhibition of recombinant human full length N-terminal GST-tagged ERK2 (1 to 360 end residues) expressed in Escherichia coli at 10 uM after 1 hr by caliper mobility shift assay relative to control"}, "[10]": {"biological_target": "Mitogen-activated protein kinase 1 (Homo sapiens) (UniProt P28482)", "test": "Inhibition of recombinant human full length N-terminal GST-tagged ERK2 (1 to 360 end residues) expressed in Escherichia coli at 0.1 uM after 1 hr by caliper mobility shift assay relative to control"}, "[11]": {"biological_target": "Interleukin-1 receptor-associated kinase 1 (Homo sapiens) (UniProt P51617)", "sequence (P51617 whole entry, looked up, the tested form may be a part)": "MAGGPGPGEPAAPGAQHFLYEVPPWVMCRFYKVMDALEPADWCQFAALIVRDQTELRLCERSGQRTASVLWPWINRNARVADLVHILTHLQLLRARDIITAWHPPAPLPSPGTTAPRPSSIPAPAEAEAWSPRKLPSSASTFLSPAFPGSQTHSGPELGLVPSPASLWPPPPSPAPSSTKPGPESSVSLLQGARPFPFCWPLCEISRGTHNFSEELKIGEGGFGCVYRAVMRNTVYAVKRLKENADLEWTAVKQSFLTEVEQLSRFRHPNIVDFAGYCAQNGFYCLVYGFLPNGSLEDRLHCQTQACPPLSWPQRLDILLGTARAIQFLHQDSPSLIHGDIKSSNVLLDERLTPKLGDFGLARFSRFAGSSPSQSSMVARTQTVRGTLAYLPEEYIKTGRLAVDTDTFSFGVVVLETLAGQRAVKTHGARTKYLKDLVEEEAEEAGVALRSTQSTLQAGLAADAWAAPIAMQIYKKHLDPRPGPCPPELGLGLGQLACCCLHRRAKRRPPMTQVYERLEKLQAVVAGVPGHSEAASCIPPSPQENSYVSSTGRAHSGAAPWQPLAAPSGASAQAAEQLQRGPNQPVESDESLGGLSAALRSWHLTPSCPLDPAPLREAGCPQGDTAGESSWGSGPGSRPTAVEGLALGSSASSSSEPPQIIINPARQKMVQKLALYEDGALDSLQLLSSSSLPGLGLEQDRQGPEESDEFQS", "test": "Inhibition of recombinant human N-terminal GST-tagged IRAK1 (194 to 712 residues) expressed in baculovirus expression system at 0.1 uM after 1 hr by caliper mobility shift assay relative to control"}, "Peritoneal macrophage [12]": {"test_system": "Peritoneal macrophage", "test": "Anti-inflammatory activity in C57BL/6 mouse primary peritoneal macrophages assessed as inhibition of LPS-induced TNFalpha secretion at 5 uM preincubated for 30 mins followed by LPS addition measured after 24 hrs by ELISA relative to control", "type": "functional", "conditions": "C57BL/6, Peritoneal macrophage"}, "[13]": {"biological_target": "T1, Inhibitor of nuclear factor kappa-B kinase subunit beta (Homo sapiens)", "test": "Inhibition of recombinant human N-terminal His-tagged IKKbeta (1 to 662 residues) expressed in baculovirus expression system at 0.1 uM after 1 hr by caliper mobility shift assay relative to control"}, "Rattus norvegicus [14]": {"test_system": "Rattus norvegicus", "test": "Anti-inflammatory activity in Sprague-Dawley rat model of LPS-induced acute lung injury assessed as reduction in pulmonary edema at 20 mg/kg, po administered daily for 1 week followed by LPS addition at 30 mins post last dose measured after 6 hrs", "type": "functional, organism-based"}, "Peritoneal macrophage [15]": {"test_system": "Peritoneal macrophage", "test": "Inhibition of LPS-induced COX2 mRNA expression in C57BL/6 mouse primary peritoneal macrophages at 10 uM preincubated for 30 mins followed by LPS addition measured after 24 hrs by qRT-PCR analysis", "type": "functional, cell-based"}, "[16]": {"biological_target": "Mitogen-activated protein kinase 1 (Homo sapiens) (UniProt P28482)", "test": "Inhibition of recombinant human full length N-terminal GST-tagged ERK2 (1 to 360 end residues) expressed in Escherichia coli at 1 uM after 1 hr by caliper mobility shift assay relative to control"}, "Rattus norvegicus [17]": {"test_system": "Rattus norvegicus", "test": "as §1, with “morphological changes” for “leukocytic extravasation”, “lungs” for “lungs by measuring number of cells in BALF”, “hematoxylin and eosin” for “Wright-Giemsa”", "type": "functional, organism-based"}, "Rattus norvegicus [18]": {"test_system": "Rattus norvegicus", "test": "Anti-inflammatory activity in Sprague-Dawley rat model of LPS-induced acute lung injury assessed as reduction in MCP1 mRNA level in lungs at 20 mg/kg, po administered daily for 1 week followed by LPS addition at 30 mins post last dose measured after 6 hrs by qRT-PCR method", "type": "functional, organism-based"}, "[19]": {"biological_target": "T1, Inhibitor of nuclear factor kappa-B kinase subunit beta (Homo sapiens)", "test": "Inhibition of recombinant human N-terminal His-tagged IKKbeta (1 to 662 residues) expressed in baculovirus expression system at 10 uM after 1 hr by caliper mobility shift assay relative to control"}},
  "note": "Calls of active or inactive are those of the source. The rule behind the calls is not given here.",
  "data": [
    {"smiles": "COc1cc(/C=C2\\COC/C(=C\\c3cc(OC)c(OC)c(OC)c3)C2=O)cc(OC)c1OC", "values": [
      {"measurement": "Activity", "setting": "Rattus norvegicus [1]", "value": "Active"},
      {"measurement": "inhibition", "setting": "RAW264.7", "value": "Active"},
      {"measurement": "Activity", "setting": "Rattus norvegicus [2]", "value": 40, "unit": "%"},
      {"measurement": "inhibition at 10 µM", "setting": "Peritoneal macrophage [3]", "value": "> 90", "unit": "%"},
      {"measurement": "inhibition", "setting": "Peritoneal macrophage [4]", "value": "Active"},
      {"measurement": "Activity", "setting": "Rattus norvegicus [5]", "value": "Active"},
      {"measurement": "survival at 10 mg/kg", "setting": "Mus musculus", "value": 70, "unit": "%"},
      {"measurement": "Activity", "setting": "Rattus norvegicus [6]", "value": "Active"},
      {"measurement": "inhibition", "setting": "Peritoneal macrophage [7]", "value": "Active"},
      {"measurement": "inhibition", "setting": "[8]", "value": 13.3, "unit": "%"},
      {"measurement": "inhibition", "setting": "[9]", "value": 7.4, "unit": "%"},
      {"measurement": "inhibition", "setting": "[10]", "value": 21.3, "unit": "%"},
      {"measurement": "inhibition", "setting": "[11]", "value": 15.9, "unit": "%"},
      {"measurement": "inhibition at 5 µM", "setting": "Peritoneal macrophage [12]", "value": "> 50", "unit": "%"},
      {"measurement": "inhibition", "setting": "[13]", "value": 15.7, "unit": "%"},
      {"measurement": "Activity", "setting": "Rattus norvegicus [14]", "value": "Active"},
      {"measurement": "inhibition", "setting": "Peritoneal macrophage [15]", "value": "Active"},
      {"measurement": "inhibition", "setting": "[16]", "value": 10.4, "unit": "%"},
      {"measurement": "Activity", "setting": "Rattus norvegicus [17]", "value": "Active"},
      {"measurement": "Activity", "setting": "Rattus norvegicus [18]", "value": "Active"},
      {"measurement": "inhibition", "setting": "[19]", "value": 7.9, "unit": "%"}
    ]},
    {"smiles": "COc1cc(/C=C2\\CN(C)C/C(=C\\c3cc(OC)c(OC)c(OC)c3)C2=O)cc(OC)c1OC", "values": [
      {"measurement": "Activity", "setting": "Rattus norvegicus [1]", "value": "Active"},
      {"measurement": "inhibition", "setting": "RAW264.7", "value": "Active"},
      {"measurement": "Activity", "setting": "Rattus norvegicus [2]", "value": 40, "unit": "%"},
      {"measurement": "inhibition at 10 µM", "setting": "Peritoneal macrophage [3]", "value": "> 90", "unit": "%"},
      {"measurement": "inhibition", "setting": "Peritoneal macrophage [4]", "value": "Active"},
      {"measurement": "Activity", "setting": "Rattus norvegicus [5]", "value": "Active"},
      {"measurement": "survival at 10 mg/kg", "setting": "Mus musculus", "value": 90, "unit": "%"},
      {"measurement": "Activity", "setting": "Rattus norvegicus [6]", "value": "Active"},
      {"measurement": "inhibition", "setting": "Peritoneal macrophage [7]", "value": "Active"},
      {"measurement": "inhibition", "setting": "[8]", "value": 6.3, "unit": "%"},
      {"measurement": "inhibition", "setting": "[9]", "value": 8.7, "unit": "%"},
      {"measurement": "inhibition", "setting": "[10]", "value": 11.7, "unit": "%"},
      {"measurement": "inhibition", "setting": "[11]", "value": 7.7, "unit": "%"},
      {"measurement": "inhibition at 5 µM", "setting": "Peritoneal macrophage [12]", "value": "> 50", "unit": "%"},
      {"measurement": "inhibition", "setting": "[13]", "value": 21.1, "unit": "%"},
      {"measurement": "Activity", "setting": "Rattus norvegicus [14]", "value": "Active"},
      {"measurement": "inhibition", "setting": "Peritoneal macrophage [15]", "value": "Active"},
      {"measurement": "inhibition", "setting": "[16]", "value": 13.3, "unit": "%"},
      {"measurement": "Activity", "setting": "Rattus norvegicus [17]", "value": "Active"},
      {"measurement": "Activity", "setting": "Rattus norvegicus [18]", "value": "Active"},
      {"measurement": "inhibition", "setting": "[19]", "value": 12.8, "unit": "%"}
    ]}
  ]
}
